Type in all cases: in vivo
Assay [1] deals with Boll Weevil (Anthonomus grandis). Briefly: Test B.2 Control of boll weevil, eggs on sprayed insect diet in 24-well microtiter plates. As to conditions: 5 days. How it is done: Test B.2 Control of Boll Weevil (Anthonomus grandis)
For evaluating control of boll weevil (Anthonomus grandis) the test unit consisted of 24-well-microtiter plates containing an insect diet and 20-30 A. grandis eggs.
The compounds or mixtures were formulated using a solution containing 75% water and 25% DMSO. Different concentrations of formulated compounds or mixtures were sprayed onto the insect diet at 20 μl, using a custom built micro atomizer, at two replications.
(§1) For experimental mixtures in these tests identical volumes of both mixing partners at the desired concentrations respectively, were mixed together.
After application, microtiter plates were incubated at about 23±1° C. and about 50±5% RH for 5 days. Egg and larval mortality was then visually assessed.

Assay [2] deals with Vetch Aphid (Megoura viciae). Briefly: Test B.1 Control of vetch aphid, sprayed broad bean leaf disks in 24-well microtiter plates. The settings on record: 5 days. As for the experimental part:
Test B.1 Control of Vetch Aphid (Megoura viciae)
For evaluating control of vetch aphid (Megoura viciae) through contact or systemic means the test unit consisted of 24-well-microtiter plates containing broad bean leaf disks.
The compounds or mixtures were formulated using a solution containing 75% water and 25% DMSO. Different concentrations of formulated compounds or mixtures were sprayed onto the leaf disks at 2.5 μl, using a custom built micro atomizer, at two replications.
For experimental mixtures in these tests identical volumes of both mixing partners at the desired concentrations respectively, were mixed together. After application, the leaf disks were air-dried and 5-8 adult aphids placed on the leaf disks inside the microtiter plate wells. The aphids were then allowed to suck on the treated leaf disks and incubated at about 23±1° C. and about 50±5% RH (relative humidity) for 5 days. Aphid mortality and fecundity was then visually assessed.

Assay [3] has as its system Green Peach Aphid (Myzus persicae). Briefly: Test B.3 Control of green peach aphid, systemic, liquid artificial diet under membrane. As to conditions: 3 days.
Text: Test B.3 Control of Green Peach Aphid (Myzus persicae)
For evaluating control of green peach aphid (Myzus persicae) through systemic means the test unit consisted of 96-well-microtiter plates containing liquid artificial diet under an artificial membrane.
The compounds or mixtures were formulated using a solution containing 75% water and 25% DMSO. Different concentrations of formulated compounds or mixtures were pipetted into the aphid diet, using a custom built pipetter, at two replications.
as §1
After application, 5 -8 adult aphids were placed on the artificial membrane inside the microtiter plate wells. The aphids were then allowed to suck on the treated aphid diet and incubated at about 23±1° C. and about 50±5% RH for 3 days. Aphid mortality and fecundity was then visually assessed.

Assay [4] concerns Yellow fever mosquito (Aedes aegyptii). Briefly: Test B.4 Control of yellow fever mosquito, curative ultrasonic spraying of larvae in liquid diet. The settings on record: 2 DAT. How it is done: Test B.4 Control of Yellow fever mosquito (Aedes aegyptii) Test principle: Curative ultrasonic spraying of larvae in liquid diet
For evaluating control of Aedes aegyptii, the assay was conducted in microtiter plates (MTP's), wherein each well was filled with 0.2 ml of a Aedes aegyptii suspension of 5 to 15 freshly hatched larvae in a liquid diet of 200 ppm yeast in water, prepared directly before spraying.
The compounds were formulated at desired concentration using a solution containing 75% v/v water and 25% v/v DMSO. Different concentrations of formulated compounds were applied at 2.5 μl, using a ultrasonic spraying, at two replications.
The MTPs were sealed with the matching lids in a climatized test chamber at about 28° C.+1° C. and about 80+5% RH (relative humidity) and at 3500+500 lux of fluorescent light.
Assessment was made 2 days after treatment (DAT) using as criterion movement of the larvae. Valid assessment values were at level 0, 50 and 100, wherein 100 indicates no movement, 50 indicates few movement and 0 indicates moderate to high movement.

Assay [5] concerns Tobacco Budworm (Heliothis virescens). Briefly: Test B.6 Control of tobacco budworm, eggs on sprayed insect diet in 96-well microtiter plates. The settings on record: 5 days. How it is done: Test B.6 Control of Tobacco Budworm (Heliothis virescens)
For evaluating control of tobacco budworm (Heliothis virescens) the test unit consisted of 96-well-microtiter plates containing an insect diet and 15-25 H. virescens eggs.
The compounds or mixtures were formulated using a solution containing 75% water and 25% DMSO. Different concentrations of formulated compounds or mixtures were sprayed onto the insect diet at 10 μl, using a custom built micro atomizer, at two replications.
as §1
After application, microtiter plates were incubated at 28±1° C., 80±5% RH for 5 days. Egg and larval mortality was then visually assessed.

Assay [6] relates to Caenorhabditis elegans. Briefly: Test B.5 Control of Caenorhabditis elegans, curative ultrasonic spraying of nematodes in liquid diet. As to conditions: 4 DAT. How it is done: Test B.5 Control of Caenorhabditis elegans Test principle: Curative ultrasonic spraying of nematodes in liquid diet
For evaluating control of Caenorhabditis elegans the test unit consisted of microtiter plates (MTP), wherein each well was filled with 0.18 ml of a C. Elegans suspension containing 60 to 100 individuals of C. elegans at mixed life stages in a liquid diet.
The compounds were formulated at desired concentration using a solution containing 75% v/v water and 25% v/v DMSO. Different concentrations of formulated compounds were applied at 5 μl by ultrasonic spraying onto the liquid diet, at two replications. After application, the treated microtiterplates were incubated in a climatized test chamber at temperature of about 18+/−1° C. and 70+/−5% RH in the dark.
Assessment was made 4 days after treatment (DAT) using as criterion movement of nematodes. Valid assessment values were at level 0, 50 and 100, wherein 100 indicates no movement, 50 indicates few movement and 0 indicates moderate to high movement.

Where [7] appears, read: alpha cypermethrin alone, 10 ppm.
Setting [8] is: alphacypermethrin alone, 0.4 ppm.

On to `CC1(C)C(C=C(Cl)Cl)C1C(=O)OC(C#N)c1cccc(Oc2ccccc2)c1` (stereo not drawn) [Alpha cypermethrin, alpha-cypermethrin], for which the Average control % in assay [1] (setting [7]) worked out at 0%; in assay [1] (setting [8]) it was 0%; in assay [2] (alpha cypermethrin alone, 2 ppm), 0%; in assay [3] (setting [7]) it was 0%; in assay [4] (setting [7]), 0%; in assay [5] (setting [8]), 0%.

For `Cc1cc(F)c(-n2cnc3ccc(F)cc3c2=O)cc1[S+]([O-])CC(F)(F)F` (stereo not drawn) [CE.I.31, 6-Fluoro-3-[2-fluoro-4-methyl-5-2(2,2,2-trifluoroethanesulfinyl)-phenyl]-3H-quinazolin-4-one], the Average control % in assay [5] (CE.I.31 alone, 2000 ppm) came to 0%.

Regarding `Cc1cc(F)c(-n2cnc3ccccc3c2=O)cc1SCC(F)(F)F` [CE.I.34, 2-(2,2,2-trifluoroethylsufanyl)-4-(4-oxo-quinazolin-3-yl)-5-fluoro-toluol], the Average control % is 0% in assay [1] (CE.I.34 alone, 100 ppm); 0% in assay [2] (CE.I.34 alone, 100 ppm); 0% in assay [3] (CE.I.34 alone, 4 ppm); 0% in assay [6] (CE.I.34 alone, 100 ppm).

Take `Cc1cc(F)c(-n2cnc3ccccc3c2=O)cc1[S+]([O-])CC(F)(F)F` (stereo not drawn) [CE.I.35, 2-(2,2,2-trifluoroethylsufinyl)-4-(4-oxo-quinazolin-3-yl)-5-fluoro-toluol]: the Average control % in assay [1] (CE.I.35 alone, 500 ppm) is 0%; in assay [1] (CE.I.35 alone, 2500 ppm), 0%; in assay [4] (CE.I.35 alone, 4 ppm), 0%; in assay [4] (CE.I.35 alone, 500 ppm) it was 0%; in assay [4] (CE.I.35 alone, 2500 ppm), 0%.

For the compound `CCOCn1c(-c2ccc(Cl)cc2)c(C#N)c(Br)c1C(F)(F)F` [Chlorfenapyr, chlorfenapyr], in assay [6] (chlorfenapyr alone, 10 ppm), the Average control % turned out to be 0%.

Compound `CCC(C)(C)C(=O)OC1=C(c2ccc(Cl)cc2Cl)C(=O)OC12CCCCC2` [Spirodiclofen, spirodiclofen] returned an Average control % in assay [5] (spirodiclofen alone, 3.2 ppm) of 0%.

As for `Cc1cc(C)c(C2=C(OC(=O)CC(C)(C)C)C3(CCCC3)OC2=O)c(C)c1` [Spiromesifen, spiromesifen], the Average control % in assay [1] (spiromesifen alone, 500 ppm) is 0%.

In assay [4] (abamectin alone, 2 ppm), abamectin returned an Average control % of 0%.

Turning to spinosad, the Average control % in assay [4] (spinosad alone, 2 ppm) is 0%.

The values are drawn from patent US20140221201A1, “INSECTICIDAL ACTIVE MIXTURES COMPRISING ARYLQUINAZOLINONE COMPOUNDS” (priority 2011, published 2014).
